Assay [1] concerns the target T1, Short transient receptor potential channel 4 (Mus musculus, UniProt Q9QUQ5).
T1 sequence (Q9QUQ5 whole entry): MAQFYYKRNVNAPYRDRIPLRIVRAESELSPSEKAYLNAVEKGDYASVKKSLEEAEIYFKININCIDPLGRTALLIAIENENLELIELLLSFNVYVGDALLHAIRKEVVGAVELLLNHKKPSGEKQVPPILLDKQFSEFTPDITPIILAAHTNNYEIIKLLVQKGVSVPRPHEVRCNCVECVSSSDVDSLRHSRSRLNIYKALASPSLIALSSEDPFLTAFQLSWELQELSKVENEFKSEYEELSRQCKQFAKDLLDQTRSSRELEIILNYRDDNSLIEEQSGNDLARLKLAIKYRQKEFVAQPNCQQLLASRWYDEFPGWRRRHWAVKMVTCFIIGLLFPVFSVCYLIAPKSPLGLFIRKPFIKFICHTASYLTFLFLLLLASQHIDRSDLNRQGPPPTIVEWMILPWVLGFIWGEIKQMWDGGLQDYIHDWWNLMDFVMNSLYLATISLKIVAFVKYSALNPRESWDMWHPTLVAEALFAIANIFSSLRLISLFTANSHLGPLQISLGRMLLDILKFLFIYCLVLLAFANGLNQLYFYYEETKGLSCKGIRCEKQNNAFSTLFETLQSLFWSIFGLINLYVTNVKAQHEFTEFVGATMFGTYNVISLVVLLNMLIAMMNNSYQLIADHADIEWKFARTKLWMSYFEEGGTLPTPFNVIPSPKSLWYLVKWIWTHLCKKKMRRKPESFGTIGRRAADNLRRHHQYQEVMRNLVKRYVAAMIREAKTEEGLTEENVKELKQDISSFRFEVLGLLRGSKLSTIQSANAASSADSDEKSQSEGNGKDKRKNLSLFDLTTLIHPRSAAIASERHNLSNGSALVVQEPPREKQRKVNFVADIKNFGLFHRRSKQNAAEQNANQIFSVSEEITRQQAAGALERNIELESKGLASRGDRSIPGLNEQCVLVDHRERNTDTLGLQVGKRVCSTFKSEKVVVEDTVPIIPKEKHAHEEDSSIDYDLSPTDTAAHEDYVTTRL
The experiment in a line: mouse TRPC4 channel inhibitors, dose response, cell-based, HEK293 TRPC4/mu-opioid, Fluo-4 calcium (AID 434942).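 Further: potency of inhibitors blocking the TRPC4 calcium response.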 It is filed as functional.

A further assay concerns the target T2, Caspase-3 (Homo sapiens, UniProt P42574).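 Further: Dose-response selectivity test against caspase-3 for candidate inhibitors of sentrin-specific proteases (SENPs).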
T2 sequence (P42574 whole entry): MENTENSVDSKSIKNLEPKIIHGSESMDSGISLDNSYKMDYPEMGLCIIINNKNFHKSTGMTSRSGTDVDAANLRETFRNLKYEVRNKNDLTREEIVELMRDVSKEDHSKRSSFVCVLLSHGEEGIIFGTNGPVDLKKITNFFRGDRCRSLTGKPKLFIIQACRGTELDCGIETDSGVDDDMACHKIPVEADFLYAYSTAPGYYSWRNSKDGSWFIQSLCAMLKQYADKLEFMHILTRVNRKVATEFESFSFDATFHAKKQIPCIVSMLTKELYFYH
The format is functional.

Assay [2] has as its target T3, Sentrin-specific protease 6 (Homo sapiens, UniProt Q9GZR1).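 Further: Luminescence-based dose-response confirmatory assay of SENP6 inhibition, following up an ultra-high-throughput screen.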
T3 sequence (Q9GZR1 whole entry): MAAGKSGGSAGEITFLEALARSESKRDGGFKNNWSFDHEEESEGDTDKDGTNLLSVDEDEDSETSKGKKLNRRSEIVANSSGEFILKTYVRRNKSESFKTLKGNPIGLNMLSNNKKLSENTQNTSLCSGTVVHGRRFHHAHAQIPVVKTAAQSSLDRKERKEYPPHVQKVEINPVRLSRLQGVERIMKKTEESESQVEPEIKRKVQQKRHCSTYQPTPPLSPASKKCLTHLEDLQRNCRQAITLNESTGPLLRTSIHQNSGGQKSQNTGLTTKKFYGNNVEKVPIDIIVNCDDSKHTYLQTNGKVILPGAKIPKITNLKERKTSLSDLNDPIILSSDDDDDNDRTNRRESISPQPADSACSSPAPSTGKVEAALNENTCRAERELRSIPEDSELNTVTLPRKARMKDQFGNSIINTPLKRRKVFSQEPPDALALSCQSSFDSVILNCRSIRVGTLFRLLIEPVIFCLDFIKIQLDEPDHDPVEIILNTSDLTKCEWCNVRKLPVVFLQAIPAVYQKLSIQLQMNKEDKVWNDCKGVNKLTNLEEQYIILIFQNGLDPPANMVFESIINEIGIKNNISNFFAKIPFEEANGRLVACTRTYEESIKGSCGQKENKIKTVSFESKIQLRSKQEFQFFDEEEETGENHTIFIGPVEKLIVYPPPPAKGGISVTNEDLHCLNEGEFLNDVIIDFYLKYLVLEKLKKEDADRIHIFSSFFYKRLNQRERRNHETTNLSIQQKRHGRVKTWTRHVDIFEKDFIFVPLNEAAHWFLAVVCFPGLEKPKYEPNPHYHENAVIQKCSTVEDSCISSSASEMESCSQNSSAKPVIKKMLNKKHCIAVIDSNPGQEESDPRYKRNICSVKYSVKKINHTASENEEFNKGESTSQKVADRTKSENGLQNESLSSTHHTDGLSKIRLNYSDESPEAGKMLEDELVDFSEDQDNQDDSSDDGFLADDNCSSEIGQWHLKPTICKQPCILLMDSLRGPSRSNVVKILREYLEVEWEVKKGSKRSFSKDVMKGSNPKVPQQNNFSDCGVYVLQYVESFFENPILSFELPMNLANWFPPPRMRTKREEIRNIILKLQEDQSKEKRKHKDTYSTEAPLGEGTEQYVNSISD
It is filed as functional.

Assay [3] has as its target T4, Sentrin-specific protease 8 (Homo sapiens, UniProt Q96LD8).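 Further: luminescence read-out of SENP8 inhibition, dose-response confirmation following an ultra-high-throughput screen.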
T4 sequence (Q96LD8 whole entry): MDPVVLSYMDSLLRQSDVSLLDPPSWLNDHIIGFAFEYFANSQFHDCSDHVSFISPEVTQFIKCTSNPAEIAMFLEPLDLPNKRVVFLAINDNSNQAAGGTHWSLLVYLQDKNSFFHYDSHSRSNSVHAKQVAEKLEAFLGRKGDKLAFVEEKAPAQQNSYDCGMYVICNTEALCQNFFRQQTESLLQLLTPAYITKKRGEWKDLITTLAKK
The format is functional.

Assay [4] addresses T5, Sentrin-specific protease 7 (Homo sapiens, UniProt Q9BQF6).
T5 sequence (Q9BQF6 whole entry): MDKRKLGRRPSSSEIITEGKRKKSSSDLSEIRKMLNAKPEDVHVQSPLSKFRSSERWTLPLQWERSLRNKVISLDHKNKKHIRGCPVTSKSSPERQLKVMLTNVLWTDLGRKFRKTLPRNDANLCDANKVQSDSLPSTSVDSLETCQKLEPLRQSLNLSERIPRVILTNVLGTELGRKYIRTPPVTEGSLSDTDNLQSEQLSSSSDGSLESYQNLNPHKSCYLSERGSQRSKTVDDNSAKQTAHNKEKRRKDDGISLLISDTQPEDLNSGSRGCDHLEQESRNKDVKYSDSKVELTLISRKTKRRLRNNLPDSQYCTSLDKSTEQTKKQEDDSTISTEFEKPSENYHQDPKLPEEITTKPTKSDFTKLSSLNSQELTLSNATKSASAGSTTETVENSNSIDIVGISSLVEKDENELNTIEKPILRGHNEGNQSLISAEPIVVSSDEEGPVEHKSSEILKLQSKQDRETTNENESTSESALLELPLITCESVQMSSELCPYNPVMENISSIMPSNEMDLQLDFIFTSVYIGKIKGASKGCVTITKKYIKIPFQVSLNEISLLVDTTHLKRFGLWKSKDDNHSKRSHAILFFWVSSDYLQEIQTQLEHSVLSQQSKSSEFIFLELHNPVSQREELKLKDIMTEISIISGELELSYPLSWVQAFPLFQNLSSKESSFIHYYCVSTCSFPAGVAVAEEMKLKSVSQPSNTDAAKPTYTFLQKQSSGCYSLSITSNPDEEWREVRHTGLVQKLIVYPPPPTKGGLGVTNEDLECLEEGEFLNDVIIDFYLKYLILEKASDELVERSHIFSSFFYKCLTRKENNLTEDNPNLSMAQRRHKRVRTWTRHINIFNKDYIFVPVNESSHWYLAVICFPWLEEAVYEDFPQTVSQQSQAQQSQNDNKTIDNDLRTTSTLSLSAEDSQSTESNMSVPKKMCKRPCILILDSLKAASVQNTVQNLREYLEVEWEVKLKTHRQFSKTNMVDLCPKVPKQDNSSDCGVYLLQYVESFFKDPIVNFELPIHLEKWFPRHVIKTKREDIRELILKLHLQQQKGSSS
It is filed as functional.

In another assay the target is T6, Protein skinhead-1 (Caenorhabditis elegans, UniProt P34707).
T6 sequence (P34707 whole entry): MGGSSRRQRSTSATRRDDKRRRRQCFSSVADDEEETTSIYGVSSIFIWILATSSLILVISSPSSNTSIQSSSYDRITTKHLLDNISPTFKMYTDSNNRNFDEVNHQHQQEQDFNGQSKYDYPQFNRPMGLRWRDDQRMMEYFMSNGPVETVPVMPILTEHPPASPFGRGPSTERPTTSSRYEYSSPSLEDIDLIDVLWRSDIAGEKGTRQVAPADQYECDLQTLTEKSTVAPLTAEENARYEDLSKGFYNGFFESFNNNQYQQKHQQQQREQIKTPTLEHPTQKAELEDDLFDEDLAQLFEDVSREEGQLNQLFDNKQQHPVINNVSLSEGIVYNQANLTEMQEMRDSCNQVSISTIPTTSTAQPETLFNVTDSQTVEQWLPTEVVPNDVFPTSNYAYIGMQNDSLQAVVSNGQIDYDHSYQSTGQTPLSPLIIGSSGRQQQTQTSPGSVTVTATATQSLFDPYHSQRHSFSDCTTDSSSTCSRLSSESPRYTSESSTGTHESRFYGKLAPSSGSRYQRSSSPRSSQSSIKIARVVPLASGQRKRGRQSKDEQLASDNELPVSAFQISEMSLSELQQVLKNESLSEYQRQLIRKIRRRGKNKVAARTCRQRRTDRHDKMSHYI
It is filed as functional.

Assay [5] addresses T7, Rac GTPase-activating protein 1 (Homo sapiens, UniProt Q9H0H5).
T7 sequence (Q9H0H5 whole entry): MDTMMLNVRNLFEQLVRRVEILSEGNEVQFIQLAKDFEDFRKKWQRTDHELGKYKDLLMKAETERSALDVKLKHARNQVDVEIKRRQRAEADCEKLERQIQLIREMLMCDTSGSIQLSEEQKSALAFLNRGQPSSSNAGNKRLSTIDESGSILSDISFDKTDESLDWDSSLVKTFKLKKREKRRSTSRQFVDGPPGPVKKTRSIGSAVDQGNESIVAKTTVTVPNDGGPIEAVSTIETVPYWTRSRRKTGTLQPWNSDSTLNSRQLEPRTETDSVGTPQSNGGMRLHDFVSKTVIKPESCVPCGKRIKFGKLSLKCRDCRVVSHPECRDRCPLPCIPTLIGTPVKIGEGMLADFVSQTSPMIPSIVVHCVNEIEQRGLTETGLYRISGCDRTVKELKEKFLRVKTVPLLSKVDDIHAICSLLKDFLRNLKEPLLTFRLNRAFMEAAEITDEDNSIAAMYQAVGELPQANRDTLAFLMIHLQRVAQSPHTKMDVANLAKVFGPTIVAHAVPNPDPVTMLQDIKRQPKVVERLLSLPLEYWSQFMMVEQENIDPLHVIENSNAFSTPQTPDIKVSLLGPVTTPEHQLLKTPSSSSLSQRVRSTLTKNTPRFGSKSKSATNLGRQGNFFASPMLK
The experiment in a line: MgcRacGAP GTPase-activating activity inhibitors, confirmation, biochemical, ADP Hunter fluorescence, primary and confirmatory (AID 624330). The format is functional.

In another assay the test system is Vero. The experiment in a line: Vero cell cytotoxicity, cytotoxicity control for flavivirus capping enzyme inhibitors (AID 588742). Particulars: Chlorocebus sabaeus. The format is functional.
Assay [6] has as its target T8, Mannose-6-phosphate isomerase (Homo sapiens, UniProt P34949).
T8 sequence (P34949 whole entry): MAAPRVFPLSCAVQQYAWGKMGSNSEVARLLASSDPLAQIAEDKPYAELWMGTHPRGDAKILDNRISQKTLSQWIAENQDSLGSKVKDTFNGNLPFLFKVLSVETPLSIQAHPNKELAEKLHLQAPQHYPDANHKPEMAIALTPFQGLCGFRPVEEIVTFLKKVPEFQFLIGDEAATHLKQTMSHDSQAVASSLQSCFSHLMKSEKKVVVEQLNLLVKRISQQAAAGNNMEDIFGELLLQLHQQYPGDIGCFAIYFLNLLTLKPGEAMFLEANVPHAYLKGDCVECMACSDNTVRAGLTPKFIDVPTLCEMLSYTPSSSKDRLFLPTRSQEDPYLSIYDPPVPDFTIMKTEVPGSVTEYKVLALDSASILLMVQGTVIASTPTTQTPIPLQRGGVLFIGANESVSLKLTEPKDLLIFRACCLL
The experiment in a line: human PMI inhibitors, high substrate, primary screen, biochemical, fluorescence intensity, high mannose 6-phosphate (AID 1220).

The structures appear in SMILES notation. Calls of active or inactive are those of the source.

In the case of `C=CCc1ccccc1OCC(O)CN1CCN(c2ccccc2OC)CC1` (stereo not given), in assay [1], the EC50 is 5.31 µM (active).

On to `Cc1ccc(C(=O)COC(=O)c2ccc(Cl)c(N)c2)s1`, for which the IC50 was 15 µM (active) at Caspase-3, 17.4 µM (active) in assay [2], 23.1 µM (active) in assay [3] and 5.51 µM (active) in [4].

For the compound `Cc1c(N)c(C(C)(C)C)cc(C(C)(C)C)c1[N+](=O)[O-]`, the EC50 in assay [1] was 4.22 µM (active).

As for `COc1cccc(O)c1CN1CCCC(C(=O)c2sccc2C)C1` (stereo not given), the EC50 in [1] is 3.35 µM (active).

For the compound `Cc1ccc(NC(=O)CN2CCc3ccccc3C2)cc1F`, the EC50 in assay [1] was 6.68 µM (active).

On to `CCC1CCCCN1CCN1C(=O)C2C(C(=O)Nc3ccc(OC)cc3)C3C=CC2(O3)C1C(=O)NC1CCCCC1` (stereo not given), for which the EC50 in assay [1] was 0.0947 µM (active). For the same compound, the IC50 on Protein skinhead-1 was > 100 µM (inactive).

As for `COc1ccc(C(CNC(=O)c2oc3ccc(Cl)cc3c2C)N2CCCCC2)cc1` (stereo not given), the EC50 in [1] was 15 µM (active).

Consider `OCc1ccccc1CNCc1ccccc1`, for which, in [1], the EC50 is 2.99 µM (active).

`COc1ccc2c(c1)-c1nc(/N=C/c3ccccc3O)sc1CC2`: the IC50 in assay [5] was 20 µM (active); in assay [6] it was > 50 µM (not active). In the assay with Vero, the CC50 was > 40 µM (active).

As usually defined, the EC50 is the concentration that produces a half-maximal response. The IC50 is the concentration that inhibits the measured activity by half. The term CC50 denotes the concentration giving 50% cytotoxicity.

Source of the values: ChEMBL document CHEMBL1201862, “PubChem BioAssay data set” (2004).
